Measurements as given in US6127339A, “Peptide for binding thereto a low density lipoprotein” (Asahi Kasei Kogyo Kabushiki Kaisha, priority 1995, dated 2000).
No end group written: not given here.

How the values were obtained:
LDL [1] = assay: BIAcore affinity of immobilized peptide to LDL in HBS buffer; format: binding; settings: 6-minute injection, based on the immobilized amount of RRWFW-CONH2 as standard
Text: (§1) Further, the binding ability (affinity) of the adsorbent for an LDL can also be determined by using BIAcore (manufactured and sold by Pharmacia Biosensor AB, Sweden), in accordance with the instructions given in a manual attached to BIAcore. Specifically, the binding ability of the adsorbent for an LDL can also be determined by a method in which the peptide is immobilized on a sensor chip of the BIAcore, and a solution containing LDL, such as plasma, is flowed over the sensor chip.
Twenty-six different peptides and four different comparative peptides (which are all shown in Table 11; wherein for Example 11, Sample Nos. 1, 4 and 5-26 are SEQ ID NOS:35, 89 and 36-57, respectively, and wherein for Comparative Example 8, Sample Nos. 1, 2, 3 and 4 are SEQ ID NOS:86, 87, 90 and 88, respectively) were prepared in substantially the same manner as in Example 7. […]
The affinity of the peptide to the LDL contained in HBS buffer was measured using the above-mentioned BIAcore (provided with the sensor chip having the peptide immobilized thereon) as follows. […] However, since the amounts of the peptides immobilized on the sensor chip vary depending on the types of the peptides, the amount of a peptide of RRWFW-CONH2 immobilized on the sensor chip was taken as a standard amount and the affinities of various tested peptides were determined, based on the above standard amount.

LDL [2] = assay: BIAcore affinity of immobilized peptide to LDL in plasma; format: binding; settings: plasma containing 1 mg/ml LDL versus LDL-free plasma; based on the immobilized amount of RRWFW-CONH2 as standard
Text: as §1
Twenty-seven different peptides and four different comparative peptides (which are all shown in Table 12, wherein for Example 12, Sample Nos. 12-15 are SEQ ID NOS:12-15, respectively) were prepared in substantially the same manner as in Example 7. Each of the obtained peptides was individually dissolved in a 10 mM acetate buffer (pH: 5.5) to thereby obtain peptide solutions each having a peptide concentration of […]. […]
The affinity of the peptide to the LDL in plasma was measured using the above-mentioned BIAcore (provided with the sensor chip having the peptide immobilized thereon) as follows. […]

| Substance | Affinity to LDL (RU) (LDL [1]) | Affinity to LDL (RU) (LDL [2]) |
| --- | --- | --- |
| DPSVY-CONH2 (DPSVY-NH2) | 310 | 250 |
| EMEEV-CONH2 (EMEEV-NH2) | 730 | 270 |
